Our source for the ring closure, halflife values is PMC12109412.

This series can be described thus: Single-molecule FRET cyclization (looping) of surface-immobilised 83 bp duplex with complementary 10-nt 5' overhangs; noncovalent ring closure by sticky-end hybridisation triggered by 1 M NaCl (no ligase). As to conditions: the molecule shown is the open-chain precursor, water, 50 mM Tris-HCl, 3 mM Trolox, glucose oxidase/catalase oxygen scavenger, other.
As for “DNA 5'-Cy5-tccagaggcttcatctccggctccactggcT(biotin)ccatcgcctccgtccctggctccatcattgccatctgtcccttttcttttttcctcttcttc-3' / RNA 5'-Cy3-agccucuggagaagaagaggaaaaaagaaaagggacagauggcaaugauggagccagggacggaggcgauggagccaguggagccggagauga-3'”, the ring closure, halflife is 10.3 min.

In turn, “DNA 5'-Cy5-acggattctgtgaaacggtggaggtgaggaT(biotin)agtcatgggtcaattagaagtcataggagaagtattaagggagtctatattgaggtactagc-3' / RNA 5'-Cy3-cagaauccgugcuaguaccucaauauagacucccuuaauacuucuccuaugacuucuaauugacccaugacuauccucaccuccaccguuuca-3'” showed a ring closure, halflife of 20.4 min.

In turn, “DNA 5'-Cy5-acggattctgtgaaacggtggaggtgaggaT(biotin)agtcatgggtcaattagaagtcataggagaagtattaagggagtctatattgaggtactagc-3' / DNA 5'-Cy3-cagaatccgtgctagtacctcaatatagactcccttaatacttctcctatgacttctaattgacccatgactatcctcacctccaccgtttca-3'” displayed a ring closure, halflife of 31.5 min. “DNA 5'-Cy5-gaagaagaggaaaaaagaaaagggacagaT(biotin)ggcaatgatggagccagggacggaggcgatggagccagtggagccggagatgaagcctctgga-3' / RNA 5'-Cy3-ccucuucuucuccagaggcuucaucuccggcuccacuggcuccaucgccuccgucccuggcuccaucauugccaucugucccuuuucuuuuuu-3'” had a ring closure, halflife of 21.7 min.

“DNA 5'-Cy5-cctccagtggctccaccttcacctgtggcT(biotin)gagactcaactgtcaccccctcctctggctccatcccttccgtccccttttgcctctttctct-3' / RNA 5'-Cy3-ccacuggaggagagaaagaggcaaaaggggacggaagggauggagccagaggagggggugacaguugagucucagccacaggugaagguggag-3'” displayed a ring closure, halflife of 10.8 min. As to “DNA 5'-Cy5-agagaaagaggcaaaaggggacggaagggaT(biotin)ggagccagaggagggggtgacagttgagtctcagccacaggtgaaggtggagccactggagg-3' / RNA 5'-Cy3-cucuuucucuccuccaguggcuccaccuucaccuguggcugagacucaacugucacccccuccucuggcuccaucccuuccguccccuuuugc-3'”, the ring closure, halflife was 26.1 min.
